Source: the supplement of paper PMC10307832

Experiments:
Test in all cases: relative viability (nuclei count vs DMSO), 5 days (fraction); higher = more cells survive
[1] = compound: CC(C)(C)c1cc(NC(=O)Nc2ccc(-c3cn4c(n3)sc3cc(OCCN5CCOCC5)ccc34)cc2)no1 [Quizartinib] + COc1cc2c(Oc3ccc(NC(=O)C4(C(=O)Nc5ccc(F)cc5)CC4)cc3F)ccnc2cc1OCCCN1CCOCC1 [Foretinib] (partner 0.25 µM)
How it was run: (§1)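 Values are medians from duplicate plates. Each reflects relative viability, defined as the nuclei count of treated wells over that of vehicle wells. Lung cancer cell lines in 1536-well plates were pin-tool dosed one day after seeding with one drug alone or with a fixed anchor-drug dose plus five library-drug doses (not always all listed) in √10 steps, then fixed, stained and imaged at 4× after 5 days.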

[2] = compound: CC(C)(C)c1cc(NC(=O)Nc2ccc(-c3cn4c(n3)sc3cc(OCCN5CCOCC5)ccc34)cc2)no1 [Quizartinib] + O=C(CCCCCCC(=O)Nc1ccccc1)NO [Vorinostat] (partner 1 µM)
How it was run: as §1

[3] = compound: COCC[n+]1c2c(n(Cc3cnccn3)c1C)C(=O)c1ccccc1C2=O [YM155] + CC(=O)Nc1cccc(-n2c(=O)n(C3CC3)c(=O)c3c(Nc4ccc(I)cc4F)n(C)c(=O)c(C)c32)c1 [Trametinib] (partner 0.02 µM)
How it was run: as §1

[4] = compound: COCC[n+]1c2c(n(Cc3cnccn3)c1C)C(=O)c1ccccc1C2=O [YM155] + CC1(C)CCC(c2ccc(Cl)cc2)=C(CN2CCN(c3ccc(C(=O)NS(=O)(=O)c4ccc(N[C@H](CCN5CCOCC5)CSc5ccccc5)c(S(=O)(=O)C(F)(F)F)c4)cc3)CC2)C1 [Navitoclax] (partner 0.5 µM)
How it was run: as §1

Cell Line	relative viability ([1]; first compound 0.001 µM)	relative viability ([1]; first compound 0.003162 µM)	relative viability ([1]; first compound 0.01 µM)	relative viability ([1]; first compound 0.03162 µM)	relative viability ([1]; first compound 0.1 µM)	relative viability ([2]; first compound 0.001 µM)	relative viability ([2]; first compound 0.003162 µM)	relative viability ([2]; first compound 0.01 µM)	relative viability ([2]; first compound 0.03162 µM)	relative viability ([2]; first compound 0.1 µM)	relative viability ([3]; first compound 0.002 µM)	relative viability ([3]; first compound 0.006325 µM)	relative viability ([3]; first compound 0.02 µM)	relative viability ([3]; first compound 0.06325 µM)	relative viability ([4]; first compound 0.002 µM)	relative viability ([4]; first compound 0.006325 µM)	relative viability ([4]; first compound 0.02 µM)	relative viability ([4]; first compound 0.06325 µM)
NCI-H647	0.818	1.09	1.1	1.16	1.17	0.567	0.494	0.655	0.688	0.998	0.342	0.456	0.463	0.472	0.947	1.17	0.855	0.442
HOP-62	0.907	1.09	1.22	1.07	1.09	0.456	0.429	0.577	0.566	0.619	0.389	0.389	0.419	0.424	0.97	0.969	0.979	1.11
NCI-H1993	0.806	0.809	0.793	0.81	0.792	0.68	0.76	0.939	0.726	0.725	0.466	0.536	0.427	0.453	0.968	0.951	0.847	0.795
A-427	–	0.988	0.97	1.04	0.957	0.609	0.757	0.818	0.767	0.874	0.739	0.796	0.757	0.526	0.984	0.88	0.91	0.997
COR-L23	0.979	0.856	1.06	0.973	1.02	0.387	0.355	0.507	0.385	0.504	0.629	0.577	0.566	0.192	0.905	0.877	0.505	0.123
NCI-H2023	0.788	0.752	0.869	–	0.742	0.61	0.493	0.762	–	0.772	0.538	0.617	0.451	0.241	1.04	1.07	0.987	0.261
NCI-H322M	0.86	0.939	0.939	0.851	0.954	0.867	0.842	0.836	0.878	0.903	0.55	0.5	0.48	0.536	1.24	1.23	1.28	1.47
NCI-H838	0.991	1.01	0.99	0.938	0.684	0.68	0.662	0.794	0.707	0.683	0.461	0.505	0.508	0.372	1.04	1.21	1.22	0.791
NCI-H23	–	1.03	0.975	0.934	0.819	0.576	0.6	0.545	0.593	0.649	–	0.361	0.498	0.225	0.727	0.879	0.967	0.269
